Source: PubChem BioAssay (NCI)
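Interpolation was linear, between the two tested concentrations surrounding the appropriate level; five concentrations were tested over 48 hours in 96-well plates. GI50 = concentration required for 50% inhibition of growth. TGI denotes the concentration required for complete inhibition of growth.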

What was measured:
Test in all cases: DTP human tumour cell line panel, 48 h
BT-549 breast = system: BT-549 breast
IGROV1 ovarian = system: IGROV1 ovarian
MCF7 breast = system: MCF7 breast
PC-3 prostate = system: PC-3 prostate
KM12 colon = system: KM12 colon
786-0 renal = system: 786-0 renal
CAKI-1 renal = system: CAKI-1 renal
HL-60(TB) leukemia = system: HL-60(TB) leukemia
SW-620 colon = system: SW-620 colon
SK-MEL-28 melanoma = system: SK-MEL-28 melanoma
T-47D breast = system: T-47D breast
SK-MEL-5 melanoma = system: SK-MEL-5 melanoma
OVCAR-8 ovarian = system: OVCAR-8 ovarian
SNB-75 CNS = system: SNB-75 CNS
ACHN renal = system: ACHN renal
CCRF-CEM leukemia = system: CCRF-CEM leukemia
EKVX NSCLC = system: EKVX NSCLC
SNB-19 CNS = system: SNB-19 CNS
A498 renal = system: A498 renal
HOP-92 NSCLC = system: HOP-92 NSCLC
NCI-H460 lung = system: NCI-H460 lung
NCI-H23 lung = system: NCI-H23 lung
COLO 205 colon = system: COLO 205 colon
TK-10 renal = system: TK-10 renal
A549 NSCLC = system: A549 NSCLC
HCT-15 colon = system: HCT-15 colon
RPMI-8226 leukemia = system: RPMI-8226 leukemia
HT29 colon = system: HT29 colon
HOP-62 NSCLC = system: HOP-62 NSCLC
MOLT-4 leukemia = system: MOLT-4 leukemia
SF-268 CNS = system: SF-268 CNS
OVCAR-5 ovarian = system: OVCAR-5 ovarian
SN12C renal = system: SN12C renal
HS 578T breast = system: HS 578T breast
UACC-62 melanoma = system: UACC-62 melanoma
SF-295 CNS = system: SF-295 CNS
NCI/ADR-RES ovarian = system: NCI/ADR-RES ovarian
SK-OV-3 ovarian = system: SK-OV-3 ovarian
SK-MEL-2 melanoma = system: SK-MEL-2 melanoma
U251 CNS = system: U251 CNS
MDA-MB-231 breast = system: MDA-MB-231 breast
SF-539 CNS = system: SF-539 CNS
LOX IMVI melanoma = system: LOX IMVI melanoma
MDA-MB-435 = system: MDA-MB-435
OVCAR-4 ovarian = system: OVCAR-4 ovarian
RXF 393 renal = system: RXF 393 renal
UACC-257 melanoma = system: UACC-257 melanoma
K-562 leukemia = system: K-562 leukemia
DU-145 prostate = system: DU-145 prostate
M14 melanoma = system: M14 melanoma
HCT-116 colon = system: HCT-116 colon
NCI-H226 lung = system: NCI-H226 lung
OVCAR-3 ovarian = system: OVCAR-3 ovarian

CC1=C2[C@H]3OC(=O)[C@@H](C)[C@@H]3CC[C@@]2(C)C=CC1=O
GI50 (BT-549 breast): > 100 µM | TGI (BT-549 breast): > 100 µM | GI50 (IGROV1 ovarian): > 100 µM | TGI (IGROV1 ovarian): > 100 µM | GI50 (MCF7 breast): > 100 µM | TGI (MCF7 breast): > 100 µM | GI50 (PC-3 prostate): > 100 µM | TGI (PC-3 prostate): > 100 µM | GI50 (KM12 colon): > 100 µM | TGI (KM12 colon): > 100 µM | GI50 (786-0 renal): > 100 µM | TGI (786-0 renal): > 100 µM | GI50 (CAKI-1 renal): > 100 µM | TGI (CAKI-1 renal): > 100 µM | GI50 (HL-60(TB) leukemia): > 100 µM | TGI (HL-60(TB) leukemia): > 100 µM | GI50 (SW-620 colon): > 100 µM | TGI (SW-620 colon): > 100 µM | GI50 (SK-MEL-28 melanoma): > 100 µM | TGI (SK-MEL-28 melanoma): > 100 µM | GI50 (T-47D breast): > 100 µM | TGI (T-47D breast): > 100 µM | GI50 (SK-MEL-5 melanoma): > 100 µM | TGI (SK-MEL-5 melanoma): > 100 µM | GI50 (OVCAR-8 ovarian): > 100 µM | TGI (OVCAR-8 ovarian): > 100 µM | GI50 (SNB-75 CNS): > 100 µM | TGI (SNB-75 CNS): > 100 µM | GI50 (ACHN renal): > 100 µM | TGI (ACHN renal): > 100 µM | GI50 (CCRF-CEM leukemia): > 100 µM | TGI (CCRF-CEM leukemia): > 100 µM | GI50 (EKVX NSCLC): > 100 µM | TGI (EKVX NSCLC): > 100 µM | GI50 (SNB-19 CNS): > 100 µM | TGI (SNB-19 CNS): > 100 µM | GI50 (A498 renal): > 100 µM | TGI (A498 renal): > 100 µM | GI50 (HOP-92 NSCLC): > 100 µM | TGI (HOP-92 NSCLC): > 100 µM | GI50 (NCI-H460 lung): > 100 µM | TGI (NCI-H460 lung): > 100 µM | GI50 (NCI-H23 lung): > 100 µM | TGI (NCI-H23 lung): > 100 µM | GI50 (COLO 205 colon): > 100 µM | TGI (COLO 205 colon): > 100 µM | GI50 (TK-10 renal): > 100 µM | TGI (TK-10 renal): > 100 µM | GI50 (A549 NSCLC): > 100 µM | TGI (A549 NSCLC): > 100 µM | GI50 (HCT-15 colon): > 100 µM | TGI (HCT-15 colon): > 100 µM | GI50 (RPMI-8226 leukemia): > 100 µM | TGI (RPMI-8226 leukemia): > 100 µM | GI50 (HT29 colon): > 100 µM | TGI (HT29 colon): > 100 µM | GI50 (HOP-62 NSCLC): > 100 µM | TGI (HOP-62 NSCLC): > 100 µM | GI50 (MOLT-4 leukemia): > 100 µM | TGI (MOLT-4 leukemia): > 100 µM | GI50 (SF-268 CNS): > 100 µM | TGI (SF-268 CNS): > 100 µM | GI50 (OVCAR-5 ovarian): > 100 µM | TGI (OVCAR-5 ovarian): > 100 µM | GI50 (SN12C renal): > 100 µM | TGI (SN12C renal): > 100 µM | GI50 (HS 578T breast): > 100 µM | TGI (HS 578T breast): > 100 µM | GI50 (UACC-62 melanoma): > 100 µM | TGI (UACC-62 melanoma): > 100 µM | GI50 (SF-295 CNS): > 100 µM | TGI (SF-295 CNS): > 100 µM | GI50 (NCI/ADR-RES ovarian): > 100 µM | TGI (NCI/ADR-RES ovarian): > 100 µM | GI50 (SK-OV-3 ovarian): > 100 µM | TGI (SK-OV-3 ovarian): > 100 µM | GI50 (SK-MEL-2 melanoma): > 100 µM | TGI (SK-MEL-2 melanoma): > 100 µM | GI50 (U251 CNS): > 100 µM | TGI (U251 CNS): > 100 µM | GI50 (MDA-MB-231 breast): > 100 µM | TGI (MDA-MB-231 breast): > 100 µM | GI50 (SF-539 CNS): > 100 µM | TGI (SF-539 CNS): > 100 µM | GI50 (LOX IMVI melanoma): > 100 µM | TGI (LOX IMVI melanoma): > 100 µM | GI50 (MDA-MB-435): > 100 µM | TGI (MDA-MB-435): > 100 µM | GI50 (OVCAR-4 ovarian): > 100 µM | TGI (OVCAR-4 ovarian): > 100 µM | GI50 (RXF 393 renal): > 100 µM | TGI (RXF 393 renal): > 100 µM | GI50 (UACC-257 melanoma): > 100 µM | TGI (UACC-257 melanoma): > 100 µM | GI50 (K-562 leukemia): > 100 µM | TGI (K-562 leukemia): > 100 µM | GI50 (DU-145 prostate): > 100 µM | TGI (DU-145 prostate): > 100 µM | GI50 (M14 melanoma): > 100 µM | TGI (M14 melanoma): > 100 µM | GI50 (HCT-116 colon): > 100 µM | TGI (HCT-116 colon): > 100 µM | GI50 (NCI-H226 lung): > 100 µM | TGI (NCI-H226 lung): > 100 µM | GI50 (OVCAR-3 ovarian): > 100 µM | TGI (OVCAR-3 ovarian): > 100 µM
